Assay results from BindingDB's records for doi:10.1016/S0960-894X(01)80235-3 (1994).

Target: O-acyltransferase (Oryctolagus cuniculus, UniProt G1SFD9)
Assay: ChEBML_28168
Method: In vitro Acyl coenzyme A:cholesterol acyltransferase inhibition by incubation with [14C]oleolyl-CoA and intestinal microsomes isolated from cholesterol-fed rabbits.

Sequence of O-acyltransferase (G1SFD9 1-524): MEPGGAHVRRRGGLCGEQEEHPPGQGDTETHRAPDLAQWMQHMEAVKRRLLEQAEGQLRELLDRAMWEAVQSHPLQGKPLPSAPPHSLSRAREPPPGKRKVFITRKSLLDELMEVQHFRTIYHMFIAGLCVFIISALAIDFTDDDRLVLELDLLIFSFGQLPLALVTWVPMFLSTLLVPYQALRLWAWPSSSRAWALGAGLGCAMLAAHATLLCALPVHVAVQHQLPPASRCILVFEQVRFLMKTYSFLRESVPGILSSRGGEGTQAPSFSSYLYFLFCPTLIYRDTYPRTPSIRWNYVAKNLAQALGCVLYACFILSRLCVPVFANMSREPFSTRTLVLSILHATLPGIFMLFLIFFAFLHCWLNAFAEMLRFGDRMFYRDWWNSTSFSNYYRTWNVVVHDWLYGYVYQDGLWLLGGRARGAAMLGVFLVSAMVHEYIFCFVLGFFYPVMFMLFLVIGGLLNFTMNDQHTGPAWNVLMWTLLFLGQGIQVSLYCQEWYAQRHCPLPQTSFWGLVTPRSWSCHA

IC50, 5 µM:
CCCCCCCC/C=C\CCCCCCCc1cc(=O)n(-c2ccc(F)cc2F)[nH]1 [2-(2,4-Difluoro-phenyl)-5-((Z)-heptadec-8-enyl)-2,4-dihydro-pyrazol-3-one]
CCCCCCCC/C=C\CCCCCCCc1cc(=O)n(-c2ccc(C)cc2C)[nH]1 [2-(2,4-Dimethyl-phenyl)-5-((Z)-heptadec-8-enyl)-2,4-dihydro-pyrazol-3-one]
CCCCCCCC/C=C\CCCCCCC[c+]1cc(O)n(-c2ccc([N+](=O)[O-])cc2[N+](=O)[O-])[n-]1 [2-(2,4-Dinitro-phenyl)-5-((Z)-heptadec-8-enyl)-2,4-dihydro-pyrazol-3-one]
CCCCCCCCCCc1cc(=O)n(-c2c(C)cccc2C)[nH]1 [5-Decyl-2-(2,6-dimethyl-phenyl)-2,4-dihydro-pyrazol-3-one]
